Values belong to the compound of their own block, whether it stands above or below them.
Columns and labels:
[1] = target: GABA-A receptor; anion channel; experiment: Displacement of [35S]TBPS from Gamma-aminobutyric acid A (GABA-A) receptor of rat cerebral cortex; format: tissue-based
[2] = organism: Mus musculus; experiment: Effective dose required for anticonvulsant activity against pentylenetetrazole-induced seizures in mice; format: functional
[3] = Toxic dose at which 50 percent of the mice failed the rotarod toxicity test; format: organism-based; settings: mouse, in vivo

Compound: CC1CC(=O)C2OC1OC2(C)C (stereo not drawn)
- IC50 [1]: 3.02 mM
- ED50 [2]: 131 mg/kg
- TD50 [3]: > 300 mg/kg

Compound: CCC1CCCCC1=O (stereo not drawn)
- IC50 [1]: 1.2 mM
- ED50 [2]: 140 mg/kg
- TD50 [3]: 245 mg/kg

- IC50 [1]: 0.0043 mM
Compound: C=CC(C)(C)c1cccc2[nH]c3c(c12)C[C@@H]1CC[C@@]2(O)C4=CC(=O)[C@@H]5O[C@@]4(CC[C@]2(C)[C@@]31C)OC5(C)C

Compound: CC1(C)OC2CCC(=O)C1O2 (stereo not drawn)
- IC50 [1]: 5.09 mM
- ED50 [2]: 192 mg/kg
- TD50 [3]: > 300 mg/kg

Compound: C[C@@H]1CC(=O)[C@H]2O[C@@H]1OC2(C)C
- IC50 [1]: 2.85 mM
- ED50 [2]: 110 mg/kg

Compound: CC1(C)OC2C=CC(=O)C1O2 (stereo not drawn)
- ED50 [2]: > 300 mg/kg
- TD50 [3]: < 100 mg/kg

Compound: CC12CCC(=O)C(O1)C(C)(C)O2 (stereo not drawn)
- IC50 [1]: 3.13 mM
- ED50 [2]: 247 mg/kg
- TD50 [3]: > 300 mg/kg

Compound: CC1CC(=O)C2OC1(C)OC2(C)C (stereo not drawn)
- IC50 [1]: 2.31 mM
- ED50 [2]: 140 mg/kg
- TD50 [3]: > 300 mg/kg

Compound: CCC1(C)CCOC1=O (stereo not drawn)
- TD50 [3]: > 500 mg/kg

Compound: C[C@H]1CC(=O)[C@@H]2O[C@H]1OC2(C)C
- IC50 [1]: 3.09 mM
- ED50 [2]: 145 mg/kg
